Laboratory results as given in ChEMBL document CHEMBL5260858, “Targeting mycobacterial membranes and membrane proteins: Progress and limitations” (Bioorg Med Chem, 2023).
Converted amounts (≈) assume the structure as drawn.

What was measured:
[1] = tested on: Mycobacterium tuberculosis; assay: Antitubercular activity against Mycobacterium tuberculosis H37Rv assessed as bacterial growth inhibition by REMA analysis; type: functional
[2] = tested on: Mycobacterium tuberculosis; assay: Antimycobacterial activity against Mycobacterium tuberculosis H37Rv ATCC27294 assessed as bacterial growth inhibition incubated for 7 days by microplate Alamar blue assay; type: functional; conditions: H37Rv ATCC27294, 168 h, time 7 day
[3] = tested on: Mycobacterium tuberculosis; assay: Antitubercular activity against Mycobacterium tuberculosis H37Rv assessed as bacterial growth inhibition; type: functional
[4] = tested on: Mycobacterium tuberculosis; assay: Antitubercular activity against Mycobacterium tuberculosis H37Rv infected in human THP-1 cells assessed as bacterial growth inhibition incubated for 48 hrs by PrestoBlue staining based fluorescence analysis; type: functional, organism-based; conditions: THP-1, 48 h
[5] = tested on: Mycobacterium tuberculosis; assay: Antitubercular activity against Mycobacterium tuberculosis H37Rv assessed as bacterial growth inhibition incubated for 7 days by resazurin reduction microplate assay; type: functional; conditions: 168 h, time 7 day
[6] = tested on: Mycobacterium tuberculosis; assay: Antitubercular activity against Mycobacterium tuberculosis mc2 7000 assessed as bacterial growth inhibition incubated for 6 days by resazurin based fluorescence assay; type: functional; conditions: mc2 7000, 144 h, time 6 day
[7] = tested on: Mycobacterium tuberculosis; assay: Antitubercular activity against Mycobacterium tuberculosis assessed as bacterial growth inhibition; type: functional
[8] = tested on: Mycobacterium tuberculosis; assay: Antitubercular activity against Mycobacterium tuberculosis H37Rv assessed as bacterial growth inhibition and measured upto 14 days by microplate alamar blue assay; type: functional; conditions: 336 h, time <= 14 day
[9] = tested on: Mycobacterium tuberculosis; assay: Antitubercular activity against Mycobacterium tuberculosis H37Rv ATCC25618 assessed as bacterial growth inhibition incubated for 6 days by resazurin based fluorescence analysis; type: functional; conditions: H37Rv ATCC25618, 144 h, time 6 day
[10] = tested on: Mycobacterium tuberculosis; assay: Antitubercular activity against Mycobacterium tuberculosis H37Rv assessed as bacterial growth inhibition incubated for 24 hrs by [14C]-acetate labelling based radiometric analysis; type: functional
[11] = tested on: Mycobacterium tuberculosis; assay: Antimycobacterial activity against Mycobacterium tuberculosis H37Rv assessed as bacterial growth inhibition incubated for 6 days by resazurin dye based assay; type: functional; conditions: 144 h, time 6 day
[12] = tested on: Mycobacterium tuberculosis; assay: Antitubercular activity against Mycobacterium tuberculosis H37Rv assessed as bacterial growth inhibition incubated for 6 days by resazurin reduction microplate assay; type: functional; conditions: 144 h, time 6 day

CCCCCCCN1CCN(c2nc(=O)c3cc(C(F)(F)F)cc([N+](=O)[O-])c3s2)CC1
MIC [1]: 0.00019 µg/mL (≈ 0.000414 µM)

O=c1nc(N2CC3CN(Cc4ccc(OC(F)(F)F)cc4)CC3C2)sc2c([N+](=O)[O-])cc(C(F)(F)F)cc12 (configuration not stated)
MIC [2]: < 0.035 µM

CCCCCCCCn1cc(CN2CCC3(CC2)OCCCO3)c2ccc(OC)cc21
MIC50 [3]: 0.5 µM

CCSc1nc(NC)c2ccccc2n1
IC50 [4]: 0.012 µg/mL (≈ 0.0547 µM)
MIC [5]: 0.09 µg/mL (≈ 0.41 µM)

CC(C)/N=c1\cc2n(-c3ccc(Cl)cc3)c3ccccc3nc-2cc1Nc1ccc(Cl)cc1 [CLOFAZIMINE]
MIC [3]: 0.12 µg/mL

FC(F)(F)c1ccc2c(c1)N(CCC[P+](c1ccccc1)(c1ccccc1)c1ccccc1)c1ccccc1S2.[Cl-]
MIC50 [3]: 1 µg/mL

CCOC(=O)c1c(-c2ccccc2)oc2ccc(O)c(CN3CCC(C)CC3)c12
MIC [6]: 2.3 µM (≈ 0.905 µg/mL)

O=c1c(NCc2ccccn2)c(-c2ccc(N3CCOCC3)cc2)c1=O
MIC [3]: 0.016 µg/mL

CCNc1nc(SCC)nc2ccccc12
IC50 [4]: 0.011 µg/mL (≈ 0.0471 µM)
MIC [5]: 0.05 µg/mL (≈ 0.214 µM)

Clc1ccc2c(c1)N(CCC[P+](c1ccccc1)(c1ccccc1)c1ccccc1)c1ccccc1S2.[Cl-]
MIC [7]: 1 µg/mL

Cc1cc(C)c2cc(C(=O)NC3CCCCCCC3)[nH]c2c1
MIC [8]: 0.0039 µg/mL (≈ 0.0131 µM)

CCCc1ccc(NC(=O)COc2cc(C)nc3ccc(OC)cc23)cc1
MIC [9]: 0.02 µg/mL (≈ 0.0549 µM)

CSc1ccc2c(c1)N(CCC1CCCCN1C)c1ccccc1S2 (configuration not stated) [THIORIDAZINE]
MIC [3]: 15 µg/mL

CCCCCCCCn1cc(CN2CCCCCC2)c2c(F)cccc21
MIC50 [3]: 2.3 µM

CCc1ccc([C@H]2C[C@@H](C(F)(F)F)n3ncc(C(=O)NCc4ccc(F)cn4)c3N2)cc1
MIC [10]: 0.5 µM (≈ 0.224 µg/mL)

NC(=O)c1cnccn1 [PYRAZINAMIDE]
MIC [3]: 3.12 µg/mL

O=C1CCc2c(cccc2OC[C@]2(O)CCN(c3c(F)cc(Cl)cc3F)C[C@H]2O)N1
MIC [7]: 0.0005 µg/mL (≈ 0.00114 µM)

O=c1nc(N2CCN(CCCCOc3ccccc3)CC2)sc2c([N+](=O)[O-])cc(C(F)(F)F)cc12
MIC [1]: 0.0015 µg/mL (≈ 0.00295 µM)

CCOc1ccc(CNc2nc3cc(C(F)(F)F)ccc3nc2C(=O)O)cc1
MIC99 [1]: 3.1 µM (≈ 1.21 µg/mL)

Cc1cc(C)c2cc(C(=O)NC3CCCCC3)[nH]c2c1
MIC [8]: 0.125 µg/mL (≈ 0.462 µM)

O=c1nc(N2CCN(S(=O)(=O)c3cccs3)CC2)sc2c([N+](=O)[O-])cc(C(F)(F)F)cc12
MIC [11]: 0.004 µg/mL (≈ 0.0079 µM)

CCS(=O)(=O)N1CCN(c2nc(=O)c3cc(C(F)(F)F)cc([N+](=O)[O-])c3s2)CC1
MIC [11]: 0.003 µg/mL (≈ 0.00663 µM)

O=c1nc(N2CCN(CCC3CCCCC3)CC2)sc2c([N+](=O)[O-])cc(C(F)(F)F)cc12
MIC [1]: 0.00019 µg/mL (≈ 0.000404 µM)

O=C(/C=C/c1nccs1)N1CCN(Cc2ccc3c(c2)OCO3)CC1
IC50 [4]: 1.8 µg/mL (≈ 5.04 µM)
MIC [12]: 0.3 µg/mL (≈ 0.839 µM)

Cc1cc(C)c2cc(C(=O)NC3CCCCCC3)[nH]c2c1
MIC [8]: 0.0156 µg/mL (≈ 0.0549 µM)

O=c1nc(N2CCN(S(=O)(=O)C3CC3)CC2)sc2c([N+](=O)[O-])cc(C(F)(F)F)cc12
MIC [11]: 0.003 µg/mL (≈ 0.00646 µM)

CCCCCc1ccc(NC(=O)COc2cc(C)nc3ccc(OC)cc23)cc1
MIC [9]: 0.02 µg/mL (≈ 0.051 µM)

O=c1nc(N2CC3CN(Cc4ccc(Cl)c(F)c4)CC3C2)sc2c([N+](=O)[O-])cc(C(F)(F)F)cc12 (configuration not stated)
MIC [2]: < 0.035 µM

CCc1ccc(NC(=O)COc2cc(C)nc3ccc(OC)cc23)cc1
MIC [9]: 0.02 µg/mL (≈ 0.0571 µM)

O=c1nc(N2CCC3(CCN(Cc4ccc(F)cc4)C3)CC2)sc2c([N+](=O)[O-])cc(C(F)(F)F)cc12
MIC [2]: < 0.035 µM

CCc1ccc([C@H]2C[C@@H](C(F)(F)F)n3ncc(C(=O)NCc4ccc5c(c4)OCO5)c3N2)cc1
MIC [10]: 0.16 µM (≈ 0.0756 µg/mL)

CCSc1nc(NC)c2cccc(F)c2n1
IC50 [4]: 0.013 µg/mL (≈ 0.0548 µM)
MIC [5]: 0.04 µg/mL (≈ 0.169 µM)

CCOC(=O)c1c(-c2ccccc2)oc2ccc(O)c(CN3CCCCC3)c12
MIC [6]: 0.4 µM (≈ 0.152 µg/mL)

CN1CCN(CCCN2c3ccccc3Sc3ccc(C(F)(F)F)cc32)CC1 [TRIFLUOPERAZINE]
MIC [7]: 5 µg/mL (≈ 12.3 µM)

CCc1nc2ccc(Cl)cn2c1C(=O)NCc1ccc(N2CCC(c3ccc(OC(F)(F)F)cc3)CC2)cc1 [TELACEBEC]
MIC [3]: 0.0027 µM

O=c1nc(N2CCN(CCCCc3ccccc3)CC2)sc2c([N+](=O)[O-])cc(C(F)(F)F)cc12
MIC [1]: 0.00035 µg/mL (≈ 0.000711 µM)

CCc1ccc([C@H]2C[C@@H](C(F)(F)F)n3ncc(C(=O)NCc4ccc(F)cc4)c3N2)cc1
MIC [10]: 0.16 µM (≈ 0.0714 µg/mL)

CN(C)CCCN1c2ccccc2Sc2ccc(Cl)cc21 [CHLORPROMAZINE]
MIC [7]: 25 µg/mL (≈ 78.4 µM)
